Common to all, as to assay type: cell-based
The test system of test [1] is GEMS receptors with CBPnavi (BclXL–LD3 and Bcl2), STAT3-driven SEAP in HEK293T cells. Put plainly: GEMS SEAP reporter assay, CBPnavi. As for the experimental part:
HEK293T cells were seeded in a 96-well plate 24 h before transfection. The transfection mix in each well consisted of 3 ng of constitutive human CMV promoter driven mammalian STAT3 expression vector (PhCMV-STAT3-pA), 30 ng of STAT3-induced reporter expression (OStat3-PhCMVmin-SEAP-pA) and 50 ng of expression vectors for each GEMS receptor chain (PSV40-IgK-(drughigh receptor)-EpoRm-IL-6RBm-pA and PSV40-IgK-(druglow receptor-GGGGSX3-LD3)-EpoRm-IL-6RBm-pA). For the specific drughigh receptor and druglow receptor used in the different cellular assays, they are indicated as wild type or with mutations. […] For drug treatment experiments, drugs were added 12 h post-transfection and incubated with cells for 24 h before the SEAP reporter detection assay.
Binding affinities of SPR drug competition assays were calculated using three-parameter nonlinear regression in GraphPad Prism (v.8.3.0). Representative data of cell assays are presented as individual values and mean values (bars). n = 3 refers to biological replicates. All IC50 or EC50 values of cell assays reported were calculated using four-parameter nonlinear regression ± s.d. Bandpass features of cutoff concentrations and Bandwidth90% were estimated based on the curve fitted using bell-shaped curve nonlinear regression in GraphPad Prism (v.8.3.0).

Test [2] has as its target GEMS receptors with BclXL:LD3 in HEK293T cells (Homo sapiens, UniProt Q07817). As for the experimental part: HEK293T cells were seeded in a 96-well plate 24 h before transfection. The transfection mix in each well consisted of 3 ng of constitutive human CMV promoter driven mammalian STAT3 expression vector (PhCMV-STAT3-pA), 30 ng of STAT3-induced reporter expression (OStat3-PhCMVmin-SEAP-pA) and 50 ng of expression vectors for each GEMS receptor chain (PSV40-IgK-(drughigh receptor)-EpoRm-IL-6RBm-pA and PSV40-IgK-(druglow receptor-GGGGSX3-LD3)-EpoRm-IL-6RBm-pA). For the specific drughigh receptor and druglow receptor used in the different cellular assays, they are indicated as wild type or with mutations. Then, plasmid DNA was mixed with 50 μl opti-MEM (Thermo Fisher) and 600 ng of polyethyleneimine (Polysciences, catalog no. 24765-1). […]
(§1) SEAP activity (U l^−1) in cell culture supernatants was quantified by kinetic measurements at 405 nm (1 minute per measurement for 30 cycles) of absorbance increase due to phosphatase-mediated hydrolysis of para-nitrophenyl phosphate (pNPP). […]
production of HEK293T cells. […] SEAP quantifications were performed to measure the protein production and WST-8 was used to test the cell proliferation. For cell proliferation assay, WST-8 was added after 24 hours of drug incubation, and measured its absorbance at 450 nm 4 hours later. […]

The target in test [3] is GEMS receptors with Bcl2:LD3 in HEK293T cells (Homo sapiens, UniProt P10415). Put plainly: GEMS SEAP reporter assay, Bcl2:LD3 complex disruption. Set-up: key: SEAP activity in U/L. To be noted: Supp Fig 3a. As for the experimental part: HEK293T cells were seeded in a 96-well plate 24 h before transfection. The transfection mix in each well consisted of 3 ng of constitutive human CMV promoter driven mammalian STAT3 expression vector (PhCMV-STAT3-pA), 30 ng of STAT3-induced reporter expression (OStat3-PhCMVmin-SEAP-pA) and 50 ng of expression vectors for each GEMS receptor chain (PSV40-IgK-(drughigh receptor)-EpoRm-IL-6RBm-pA and PSV40-IgK-(druglow receptor-GGGGSX3-LD3)-EpoRm-IL-6RBm-pA). For the specific drughigh receptor and druglow receptor used in the different cellular assays, they are indicated as wild type or with mutations. Then, plasmid DNA was mixed with 50 μl opti-MEM (Thermo Fisher) and 600 ng of polyethyleneimine (Polysciences, catalog no. 24765-1). For drug treatment experiments, drugs were added 12 h post-transfection and incubated with cells for 24 h before the SEAP reporter detection assay.
Sequence of GEMS receptors with Bcl2:LD3 in HEK293T cells (P10415 whole entry): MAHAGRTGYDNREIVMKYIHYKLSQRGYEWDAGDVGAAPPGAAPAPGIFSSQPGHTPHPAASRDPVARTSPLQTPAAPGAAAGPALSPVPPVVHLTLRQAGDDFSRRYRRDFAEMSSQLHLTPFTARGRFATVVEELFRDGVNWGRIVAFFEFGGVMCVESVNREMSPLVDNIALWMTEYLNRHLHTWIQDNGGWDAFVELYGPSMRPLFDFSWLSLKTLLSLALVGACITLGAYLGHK
as §1
A general note: In a reporter assay the amount or activity of a reporter protein is the signal.

A word on the IC50: it is the concentration at which inhibition is half-maximal.

Values joined by “and” are separate entries in the source; they are usually repeats but may differ in a detail not shown here. Equal values may be shown once. Read-outs that look alike come from different tables or passages of the source.

Sequence of GEMS receptors with BclXL:LD3 in HEK293T cells (Q07817 whole entry): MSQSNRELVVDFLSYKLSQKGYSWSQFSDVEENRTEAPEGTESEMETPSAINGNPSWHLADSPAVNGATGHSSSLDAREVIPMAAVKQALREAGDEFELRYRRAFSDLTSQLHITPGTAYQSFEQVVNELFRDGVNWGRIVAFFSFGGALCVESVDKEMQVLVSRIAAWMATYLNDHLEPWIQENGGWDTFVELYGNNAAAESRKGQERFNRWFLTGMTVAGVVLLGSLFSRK

Consider `CC1(C)CCC(c2ccc(Cl)cc2)=C(CN2CCN(c3ccc(C(=O)NS(=O)(=O)c4ccc(N[C@H](CCN5CCOCC5)CSc5ccccc5)c(S(=O)(=O)C(F)(F)F)c4)cc3)CC2)C1` [Navitoclax], for which the “Dip (bell-shaped fit, best-fit value)” value in test [1] (CBPnavi, Fig 3c) stood at 146.8. The “Plateau1 (bell-shaped fit, best-fit value)” value in test [1] (CBPnavi, Fig 3c) is 13.3. For the same molecule, the “Plateau2 (bell-shaped fit, best-fit value)” value in test [1] (CBPnavi, Fig 3c) stood at 20.77. For the same molecule, the “nH1 (bell-shaped fit, best-fit value)” value in test [1] (CBPnavi, Fig 3c) was -2.607. Further, in test [1] (CBPnavi, Fig 3c), the “nH2 (bell-shaped fit, best-fit value)” value was -2.347. Further, the EC50 was 0.0665 µM in test [1] (Homo sapiens, HEK-293T, read-out: EC50_1 (bell-shaped fit, best-fit value)); 2.85 µM in test [1] (Homo sapiens, HEK-293T, read-out: EC50_2 (bell-shaped fit, best-fit value)); 0.065 µM in test [1] (Homo sapiens, HEK-293T, read-out: EC50 of the ON phase). Moreover, the IC50 in test [1] (Homo sapiens, HEK-293T, read-out: IC50 of the OFF phase) came out at 2.82 µM. Besides, in test [2], the “more potent activity to BclXL than to Bcl2” value was “approximately 4.4 fold”. The “dose response (SEAP)” value in test [3] (Navitoclax 1 nM) was 217.89 and 244.414 and 201.569; in test [3] (Navitoclax 3.18 nM), 251.97 and 247.153 and 223.02; in test [3] (Navitoclax 10 nM), 225.391 and 249.837 and 220.973; in test [3] (Navitoclax 31.8 nM), 203.543 and 185.176 and 172.987; in test [3] (Navitoclax 100 nM), 207.157 and 228.932 and 148.919; in test [3] (Navitoclax 318 nM), 189.257 and 207.554 and 159.852. Moreover, the “dose response (SEAP)” value in test [3] (Navitoclax 1000 nM) is 160.635 and 174.477 and 98.5023; in test [3] (Navitoclax 3180 nM), 138.28 and 140.892 and 97.3043; in test [3] (Navitoclax 10000 nM) it was 109.056 and 131.507 and 65.8832.

Values taken from PMC11062894, “Protein-based bandpass filters for controlling cellular signaling with chemical inputs” (Nature Chemical Biology, 2023).
